Experimental data as given in patent publication US10385047B2, “Histone demethylase inhibitors” (CELGENE QUANTICEL RESEARCH, INC., priority 2014, dated 2019).

Columns and labels:
JMJD2C = molecular target: T1, JMJD2C (Homo sapiens, UniProt Q9H3R0); assay: In vitro enzyme inhibition assay for JMJD2C activity (TR-FRET); format: biochemical
T1 construct: purchased BPS Bioscience 50105; host or cells: baculovirus expression system (insect cells)
T1 sequence (Q9H3R0 2-372): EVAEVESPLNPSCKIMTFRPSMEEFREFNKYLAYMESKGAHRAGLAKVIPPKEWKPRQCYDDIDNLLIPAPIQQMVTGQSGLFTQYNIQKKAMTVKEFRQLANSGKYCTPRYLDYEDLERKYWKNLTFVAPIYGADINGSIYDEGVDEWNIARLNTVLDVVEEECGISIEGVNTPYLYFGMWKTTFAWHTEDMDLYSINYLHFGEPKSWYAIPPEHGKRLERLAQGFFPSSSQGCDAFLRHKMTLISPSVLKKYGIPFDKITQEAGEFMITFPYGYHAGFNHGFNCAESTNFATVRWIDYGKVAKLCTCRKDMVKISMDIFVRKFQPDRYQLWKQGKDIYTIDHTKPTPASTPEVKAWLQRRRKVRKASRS
Description: This assay determines the ability of a test compound to inhibit JMJD2C demethylase activity. Baculovirus expressed JMJD2C (GenBank Accession #BC143571, AA 2-372) was purchased from BPS Bioscience (Cat#50105).
The ability of test compounds to inhibit the activity of JMJD2C was determined in 384-well plate format under the following reaction conditions: 0.3 nM JMJD2C, 300 nM H3K9me3-biotin labeled peptide (Anaspec cat #64360), 2 μM alpha-ketoglutaric acid in assay buffer of 50 mM HEPES, pH7.3, 0.005% Brij35, 0.5 mM TCEP, 0.2 mg/ml BSA, 50 μM sodium L-ascorbate, and 2 μM ammonium iron(II) sulfate. Reaction product was determined quantitatively by TR-FRET after the addition of detection reagent Phycolink Streptavidin-allophycocyanin (Prozyme) and Europium-anti-di-methylated histone H3 lysine 9 (H3K9me2) antibody (PerkinElmer) in the presence of 5 mM EDTA in LANCE detection buffer (PerkinElmer) at a final concentration of 50 nM and 1 nM, respectively.
The assay reaction was initiated by the following: 2 μl of the mixture of 900 nM H3K9me3-biotin labeled peptide and 6 μM alpha-ketoglutaric acid with 2 μl of 11-point serial diluted inhibitor in 3% DMSO were added to each well of the plate, followed by the addition of 2 μl of 0.9 nM JMJD2C to initiate the reaction. The reaction mixture was incubated at room temperature for 30 minutes, and terminated by the addition of 6 μl of 5 mM EDTA in LANCE detection buffer containing 100 nM Phycolink Streptavidin-allophycocyanin and 2 nM Europium-anti-H3K9me2 antibody. Plates were read by EnVisionMultilabel Reader in TR-FRET mode (excitation at 320 nm, emission at 615 nm and 665 nm) after 1 hour incubation at room temperature. A ratio was calculated (665/615) for each well and fitted to determine inhibition constant (IC50).

JMJD3 = molecular target: T2, JMJD3 (Homo sapiens, UniProt O15054); assay: In vitro enzyme inhibition assay for JMJD3 activity (TR-FRET); format: biochemical; details: enzymatic assay conditions described herein
T2 construct: purchased BPS Bioscience 50115; host or cells: baculovirus expression system (insect cells)
Description: This assay determines the ability of a test compound to inhibit JMJD3 demethylase activity. Baculovirus expressed JMJD3 (GenBank Accession #NM-001080424, AA1043-end) was purchased from BPS Bioscience (Cat#50115).
The enzymatic assay of JMJD3 activity is based upon Time Resolved-Fluorescence Resonance Energy Transfer (TR-FRET) detection. […] Reaction product was determined quantitatively by TR-FRET after the addition of detection reagent Phycolink Streptavidin-allophycocyanin (Prozyme) and Europium-anti-di-methylated histone H3 lysine 27 (H3K27me2) antibody (PerkinElmer) in the presence of 5 mM EDTA in LANCE detection buffer (PerkinElmer) at a final concentration of 50 nM and 1 nM, respectively.
The reaction mixture was incubated at room temperature for 30 minutes, and terminated by the addition of 6 μL of 5 mM EDTA in LANCE detection buffer containing 100 nM Phycolink Streptavidin-allophycocyanin and 2 nM Europium-anti-H3K27me2 antibody. Plates were read by EnVisionMultilabel Reader in TR-FRET mode (excitation at 320 nm, emission at 615 nm and 665 nm) after 1 hour incubation at room temperature. A ratio from the readout of 665/615 was calculated for each well and fitted to determine inhibition constant (IC50).

[1] = 0.3 nM JMJD2C, H3K9me3-biotin peptide, 2 μM alpha-ketoglutaric acid
[2] = enzymatic assay conditions described herein

T2 sequence (O15054 1043-1682 isoform O15054-1): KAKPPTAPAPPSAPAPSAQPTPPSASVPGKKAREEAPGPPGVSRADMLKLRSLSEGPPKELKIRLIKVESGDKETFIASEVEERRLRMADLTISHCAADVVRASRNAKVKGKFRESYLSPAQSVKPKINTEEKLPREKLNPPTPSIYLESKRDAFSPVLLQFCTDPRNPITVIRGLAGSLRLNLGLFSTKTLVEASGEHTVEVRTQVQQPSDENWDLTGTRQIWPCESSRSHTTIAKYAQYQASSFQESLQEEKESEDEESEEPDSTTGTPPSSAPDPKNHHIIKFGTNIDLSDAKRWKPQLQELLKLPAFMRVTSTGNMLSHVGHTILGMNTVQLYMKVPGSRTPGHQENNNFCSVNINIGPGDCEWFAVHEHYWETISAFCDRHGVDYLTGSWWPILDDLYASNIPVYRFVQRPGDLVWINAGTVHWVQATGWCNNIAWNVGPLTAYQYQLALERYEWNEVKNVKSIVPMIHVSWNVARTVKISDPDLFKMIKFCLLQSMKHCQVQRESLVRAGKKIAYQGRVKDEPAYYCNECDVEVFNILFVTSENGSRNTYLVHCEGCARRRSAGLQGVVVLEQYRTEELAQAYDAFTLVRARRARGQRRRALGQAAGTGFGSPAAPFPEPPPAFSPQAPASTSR

SMILES	IC50 (JMJD2C; [1]) [nM]	IC50 (JMJD2C; [2]) [nM]	IC50 (JMJD3) [nM]
C[C@@H](O)c1ccc(N(C)c2ccc3c(c2)CCC[C@H]3CNc2cnccc2C(=O)O)cc1 (single isomer, unassigned) [Example 168]	100 to 1000	–	–
C[C@H](O)c1ccc(N(C)c2ccc3c(c2)CCC[C@H]3CNc2cnccc2C(=O)O)cc1 (single isomer, unassigned) [Example 169]	100 to 1000	–	–
O=C(O)c1ccncc1NC[C@@H]1CCOc2cc(C3CCCCC3)ccc21 [Example 35, 3-({[(4R)-7-cyclohexyl-3,4-dihydro-2H-1-benzopyran-4-yl]methyl}amino)pyridine-4-carboxylic Acid]	100 to 1000	–	–
O=C(O)c1ccncc1NC[C@H]1CCOc2cc(-c3ccccc3)ccc21 [Example 83 of U.S. Pat. No. 8,952,151, 3-({[(4S)-7-phenyl-3,4-dihydro-2H-1-benzopyran-4-yl]methyl}amino)pyridine-4-carboxylic acid]	–	950	19
O=C(O)c1ccncc1NC[C@@H]1CCOc2cc(-c3ccccc3)ccc21 [Example 84 of U.S. Pat. No. 8,952,151, 3-({[(4R)-7-phenyl-3,4-dihydro-2H-1-benzopyran-4-yl]methyl}amino)pyridine-4-carboxylic acid]	–	150	2150
